Test results as given in PMC8049054, “Systematic Assessment of Fragment Identification for Multitarget Drug Design” (Chemmedchem, 2021).
Marks after values point to notes of the source that are not given here.

What was measured:
Conditions in all cases: 500 μM fragment, mean of duplicates
[1] = test system: T1, farnesoid X receptor (FXR); experiment: Differential scanning fluorimetry (DSF) screen on FXR; type: binding, human
T1 construct: made in house; host or cells: E. coli BL21 (DE3)
From the text: For the primary screen of this fragment library, we employed differential scanning fluorimetry (DSF, also known as thermal shift). DSF is generally applicable to a large panel of protein targets and provides a robust, low‐cost screening technology for fragment‐based approaches. ^[20] […] We performed an initial fragment screen on all five targets by DSF.
(§1) Figure S3: SDS page of the purified proteins (proteins RXRα and FXR after TEV cleavage) using a 14% polyacrylamide gel, which was stained with coomassi. Precision Plus Protein™ Unstained Protein Standard s (Bio-Rad Laboratories, Inc. ) was used […]
(§2) All experiments were performed as duplicates using MicroAmp fast 96 -well plates. Each plate contained 80 different compound wells and 16 DMSO control wells. First 0.8 µl of a 25 mM Preswick Library Fragment dilution in DMSO or pure DMSO were placed in each of the well (final concentration 500 µM). Then 39.2 µl of the master mi x (containing protein, Triton x -100, SYPRO® Orange Protein Gel Stain and buffer that corresponds to the tested protein) were added.
(§3) Table S4: Final concentrations in DSF experiments:
Protein Final concentrations under screening conditions
(§4) The measurements were performed using a iCycler iQ™ Single -Color Real Time PCR device with a heat rate of 1 °C per min, an excitation wavelength of 490 nm and an emission wavelength of 570 nm. The first derivation calculated by MyiQ Op tical Software 1.0 was analyzed using Microsoft Office Excel 2013 by comparing the maxima. A shift of 1 °C (in case of 5 -LOX 0.9°C) or more compared to the DMSO control were assumed as potentially binding of the fragment.
(§5) (1 picture or pasted object on this page, not shown here)

5‐lipoxygenase (5‐LOX) = molecular target: T2, 5‐lipoxygenase (5‐LOX) (Homo sapiens, UniProt P09917); experiment: Differential scanning fluorimetry (DSF) screen on 5-LOX; type: binding
T2 construct: made in house; host or cells: E. coli BL21 (DE3)
T2 sequence (P09917 1-674): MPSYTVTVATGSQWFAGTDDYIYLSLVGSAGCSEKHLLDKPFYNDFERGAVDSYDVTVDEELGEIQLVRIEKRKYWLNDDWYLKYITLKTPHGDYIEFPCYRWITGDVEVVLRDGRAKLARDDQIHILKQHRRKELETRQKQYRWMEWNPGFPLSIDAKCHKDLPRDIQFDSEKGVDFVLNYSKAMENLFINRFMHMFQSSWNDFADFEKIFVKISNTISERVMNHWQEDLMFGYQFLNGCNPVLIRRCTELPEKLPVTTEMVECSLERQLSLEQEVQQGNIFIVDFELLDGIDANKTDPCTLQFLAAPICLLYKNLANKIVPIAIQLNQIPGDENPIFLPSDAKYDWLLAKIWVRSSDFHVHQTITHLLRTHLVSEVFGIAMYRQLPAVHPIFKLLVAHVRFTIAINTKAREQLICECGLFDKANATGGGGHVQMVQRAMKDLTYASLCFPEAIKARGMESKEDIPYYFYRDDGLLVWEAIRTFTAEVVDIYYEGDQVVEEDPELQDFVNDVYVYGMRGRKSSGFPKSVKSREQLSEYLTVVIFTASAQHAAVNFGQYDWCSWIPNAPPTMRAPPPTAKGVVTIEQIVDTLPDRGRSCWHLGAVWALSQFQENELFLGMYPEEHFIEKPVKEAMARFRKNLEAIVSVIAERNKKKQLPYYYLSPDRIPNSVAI
From the text: (§6) For the primary screen of this fragment library, we employed differential scanning fluorimetry (DSF, also known as thermal shift). DSF is generally applicable to a large panel of protein targets and provides a robust, low‐cost screening technology for fragment‐based approaches. ^[20] All five proteins of our interest are soluble and were recombinantly expressed in Escherichia coli. We performed an initial fragment screen on all five targets by DSF. The use of a uniform screening method for all targets ensured consistent data and provided the opportunity to identify false positive hits which interfered with the screening technology. The conditions of the DSF assay were optimized for the desired screening and validated with reference compounds (Table S1 in the Supporting Information). Compounds causing a positive thermal shift ΔT m≥1.0 °C were considered as active.
(§7) DSF measurement of the PDFL (single concentration of 500 μM, duplicates, 96‐well format) on the five proteins retrieved 19 fragment hits on sEH, 28 on LTA4H, 12 on 5‐LOX, 16 on RXRα, and 14 on FXR, respectively. Melting point distributions of the screening library for all five targets are depicted in Figure 2. Amongst the hits, three compounds (Table S2) gave a positive signal on all five proteins likely qualifying them as pan assay interference compounds (PAINS). ^[21] Fragments binding to multiple targets (Scheme 1) were identified for seven out of ten target combinations (Figure 2, Table 1). Among them, fragments 4, 6, 7, and 9 match previously identified privileged scaffolds for fatty acid mimetics. ^[14] […] Active ligands containing N‐phenylbenzamide 6 and the N‐phenylbenzylamine 7 have been described for four of the protein targets. Furthermore, indole, which has been characterized as a privileged heterocycle for fatty acid mimetics, ^[14] is present in fragments 5 and 10. Dual 5‐LOX/RXR ligand 1 was present in 5‐LOX inhibitors, while dual FXR/LTA4H modulator 3 is found among known FXR ligands. Fragments 2 (sEH/5‐LOX) and 8 (LTA4H/RXR) are novel scaffolds not appearing in known ligands of any of the five targets.
as §1, §2
Table S4: Final concentrations in DSF experiments: […]
5-LOX 500 µM compound, 3.5 µM protein, 0.87x DPBS, 0.87 mM EDTA, 0.01% (W/V) Triton X-100, 2.1% DMSO and 5x SYPRO® with a pH = 7.5 […]
as §4, §5

[2] = test system: T3, soluble epoxide hydrolase (sEH); experiment: Differential scanning fluorimetry (DSF) screen on sEH; type: binding
T3 construct: For the expression of sEH-H and sEH-Fl transformed E.coli BL21 (DE3) cells were grown in 5052; made in house; host or cells: E. coli BL21 (DE3)
From the text: as §6, §7, §1, §2, §3
Protein Final concentrations under screening conditions […]
glycerol, 0.01% (W/V) Triton X-100, 2.05 % DMSO and 2.5x SYPRO® with a pH = 7 […]
as §4, §5

SMILES	DSF/ΔT m FXR [1]	DSF/ΔT m 5‐LOX (5‐lipoxygenase (5‐LOX))	DSF/ΔT m sEH [2]
c1ccc(N2CCNCC2)nc1 [Compound 1]	−0.1±0.0 °C	0.9±0.0 °C	0.0±0.0 °C
Cc1cc(=O)n(-c2ccc(C)c(C)c2)[nH]1 [Compound 2]	0.3±0.0 °C	1.1±0.0 °C	2.2±0.0 °C
CCCCOc1cc(C(=O)OC)ccc1N [Compound 3]	1.4±0.7 °C	−1.1±0.0 °C	0.0±0.0 °C
Oc1ccc(Cc2ccccc2)cc1 [Compound 4]	–	−1.1±0.0 °C	0.0±0.0 °C
Oc1ccc2cc[nH]c2c1 [Compound 5]	1.2±0.0 °C	−0.1±0.0 °C	0.0±0.0 °C
Cc1ccccc1C(=O)Nc1ccccc1 [Compound 6]	−1.2±0.7 °C	−1.4±2.1 °C	2.0±0.0 °C
CCN(Cc1ccccc1)c1ccccc1 [Compound 7]	–	0.9±0.0 °C	1.0±0.0 °C
Clc1ccc2c(c1)Nc1ccccc1CC2 [Compound 8]	–	−0.1±0.0 °C	–
Oc1ccc(-c2ccc(F)cc2F)cc1 [Compound 9]	21.7±3.5 ^[a] °C	−1.1±0.0 °C	1.0±0.0 °C
Fc1ccc(-c2c[nH]c3ccccc23)cc1 [Compound 10]	−11.6±2.1 °C	0.9±0.0 °C	0.6±0.7 °C
